For 43 compounds, Ki results are on record in patent US20090227607A1, “DEAZAPURINES USEFUL AS INHIBITORS OF JANUS KINASES” (priority 2006, published 2009).

The target in one assay is JAK-2 enzyme (Homo sapiens, UniProt O60674). Kind of assay: JAK2 Inhibition Assay. The note with it: 15 μM poly(Glu)4Tyr, 12 μM ATP, 25° C. The class given is biochemical. On the procedure: (§1) Compounds were screened for their ability to inhibit JAK3 using the assay shown below. Reactions were carried out in a kinase buffer containing 100 mM HEPES (pH 7.4), 1 mM DTT, 10 mM MgCl2, 25 mM NaCl, and 0.01% BSA. Substrate concentrations in the assay were 5 μM ATP (200 uCi/μmole ATP) and 1 μM poly(Glu)4Tyr. Reactions were carried out at 25° C. and 1 nM JAK3.
JAK-2 enzyme, sequence (O60674 whole entry, species assumed): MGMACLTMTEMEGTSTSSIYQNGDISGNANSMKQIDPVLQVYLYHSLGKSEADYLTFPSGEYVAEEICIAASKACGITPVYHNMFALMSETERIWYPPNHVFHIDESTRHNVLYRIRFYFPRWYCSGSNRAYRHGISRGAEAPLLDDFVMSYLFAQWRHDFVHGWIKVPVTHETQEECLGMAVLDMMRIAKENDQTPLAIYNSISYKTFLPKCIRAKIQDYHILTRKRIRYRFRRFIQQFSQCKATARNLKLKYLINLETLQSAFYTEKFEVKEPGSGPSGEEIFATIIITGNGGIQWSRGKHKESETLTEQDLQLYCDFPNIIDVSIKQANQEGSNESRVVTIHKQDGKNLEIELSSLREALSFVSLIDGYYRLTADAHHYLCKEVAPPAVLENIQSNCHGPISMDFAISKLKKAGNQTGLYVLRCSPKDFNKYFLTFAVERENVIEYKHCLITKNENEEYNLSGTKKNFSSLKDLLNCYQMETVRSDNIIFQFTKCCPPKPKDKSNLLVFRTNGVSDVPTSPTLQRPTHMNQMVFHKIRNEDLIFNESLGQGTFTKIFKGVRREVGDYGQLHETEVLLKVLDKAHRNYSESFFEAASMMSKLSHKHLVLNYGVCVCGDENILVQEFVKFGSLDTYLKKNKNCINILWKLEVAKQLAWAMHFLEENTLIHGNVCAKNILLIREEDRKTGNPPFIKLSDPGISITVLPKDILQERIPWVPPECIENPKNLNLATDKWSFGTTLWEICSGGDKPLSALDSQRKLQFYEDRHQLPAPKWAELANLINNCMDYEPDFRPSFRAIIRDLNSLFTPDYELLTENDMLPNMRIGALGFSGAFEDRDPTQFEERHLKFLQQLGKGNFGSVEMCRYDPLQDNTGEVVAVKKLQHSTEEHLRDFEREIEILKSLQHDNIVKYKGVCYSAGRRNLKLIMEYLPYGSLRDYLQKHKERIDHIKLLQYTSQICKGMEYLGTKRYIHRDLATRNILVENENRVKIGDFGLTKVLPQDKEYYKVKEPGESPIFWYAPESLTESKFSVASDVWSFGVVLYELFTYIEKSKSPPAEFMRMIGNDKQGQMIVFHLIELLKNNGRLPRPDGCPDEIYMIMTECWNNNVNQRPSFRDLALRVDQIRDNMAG
(§2) To each well of a 96 well polycarbonate plate was added 1.5 μl of a candidate JAK3 inhibitor along with 50 μl of kinase buffer containing 2 μM poly(Glu)4Tyr and […]. This was then mixed and […] of kinase buffer containing 2 nM JAK3 enzyme was added to start the reaction. After 20 minutes at room temperature (25° C.), the reaction was stopped with 50 μl of 20% trichloroacetic acid (TCA) that also contained 0.4 mM ATP. The entire contents of each well were then transferred to a 96 well glass fiber filter plate using a TomTek Cell Harvester. After washing, 60 μl of scintillation fluid was added and ^33P incorporation detected on a Perkin Elmer TopCount.
The assays were as described above in Example 36 except that JAK-2 enzyme was used, the final poly(Glu)4Tyr concentration was 15 μM, and final ATP concentration was 12 μM.
(§3) Tables 5 and 6 depict enzyme inhibition data (Ki) for certain exemplary compounds. Compound numbers in Tables 5 and 6 correspond to those compounds depicted in Tables 1 and 2, respectively.

Another assay has as its target T1, JAK3 (Homo sapiens, UniProt P52333).
T1 sequence (P52333 1-1124): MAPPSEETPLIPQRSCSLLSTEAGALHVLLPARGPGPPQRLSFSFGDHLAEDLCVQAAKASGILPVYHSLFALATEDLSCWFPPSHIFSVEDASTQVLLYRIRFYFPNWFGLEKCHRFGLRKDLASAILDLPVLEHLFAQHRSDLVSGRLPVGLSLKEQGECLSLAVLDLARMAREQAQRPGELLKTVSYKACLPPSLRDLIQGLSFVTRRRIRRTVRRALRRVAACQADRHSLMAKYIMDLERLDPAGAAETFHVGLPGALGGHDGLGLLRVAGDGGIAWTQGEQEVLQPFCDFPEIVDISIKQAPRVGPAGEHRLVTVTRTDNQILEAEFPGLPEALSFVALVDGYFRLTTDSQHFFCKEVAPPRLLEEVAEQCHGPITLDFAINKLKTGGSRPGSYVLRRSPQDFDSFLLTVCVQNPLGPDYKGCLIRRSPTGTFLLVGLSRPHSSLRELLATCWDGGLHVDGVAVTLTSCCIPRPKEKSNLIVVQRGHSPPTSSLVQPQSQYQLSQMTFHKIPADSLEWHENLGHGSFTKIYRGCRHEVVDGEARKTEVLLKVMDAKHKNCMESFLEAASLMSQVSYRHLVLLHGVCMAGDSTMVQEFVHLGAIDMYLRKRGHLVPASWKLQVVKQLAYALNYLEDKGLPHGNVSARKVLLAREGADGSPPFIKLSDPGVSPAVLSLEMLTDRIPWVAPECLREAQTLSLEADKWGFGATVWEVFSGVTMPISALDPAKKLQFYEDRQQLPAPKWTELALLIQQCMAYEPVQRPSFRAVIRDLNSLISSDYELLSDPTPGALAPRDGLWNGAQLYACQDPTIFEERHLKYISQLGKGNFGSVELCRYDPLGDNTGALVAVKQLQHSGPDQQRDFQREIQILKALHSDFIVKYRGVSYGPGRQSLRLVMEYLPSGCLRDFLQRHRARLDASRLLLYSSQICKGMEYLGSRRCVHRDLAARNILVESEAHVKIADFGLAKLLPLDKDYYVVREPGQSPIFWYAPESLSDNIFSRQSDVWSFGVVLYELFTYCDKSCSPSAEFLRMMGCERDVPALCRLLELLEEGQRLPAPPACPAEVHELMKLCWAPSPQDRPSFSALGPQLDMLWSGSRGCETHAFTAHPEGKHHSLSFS
Kind of assay: JAK3 Inhibition Assay. The class given is biochemical. The note with it: 1 μM poly(Glu)4Tyr, 5 μM ATP, 1 nM JAK3, 25° C.; read-out: JAK3 enzyme inhibition data (Ki). On the procedure: as §1, §2, §3

As usually defined, the Ki is a measure of affinity in units of concentration, obtained from inhibition or displacement. For `COC(=O)C1C2C=CC(C2)C1C(=O)Nc1nc(-c2ncnc3[nH]ccc23)cs1` (centres unmarked) [Compound 155], the Ki is less than 100 nM at JAK-2 enzyme and 100 to 500 nM at JAK3.

In the case of `CCN(CCC#N)C(=O)c1cc(-c2ncnc3[nH]ccc23)cn1C` [Compound 237], the inhibition constant (Ki) at JAK-2 enzyme and on JAK3 was less than 100 nM in each case.

For `CC(C)N(CCC(F)(F)F)C(=O)c1ccc(-c2ncnc3[nH]ccc23)o1` [Compound 210], the Ki on JAK-2 enzyme and on JAK3 was less than 100 nM in each case.

For `CCCC(C)n1cc(-c2ncnc3[nH]ccc23)cn1` (centres unmarked) [Compound 38], the Ki at JAK-2 enzyme and on JAK3 was less than 100 nM throughout.

Consider `O=C(CCC(=O)C1CC1)Nc1nc(-c2ncnc3[nH]ccc23)cs1` [Compound 170], for which the Ki on JAK-2 enzyme is less than 100 nM; on JAK3, 100 to 500 nM.

As to `CCN(Cc1ccccc1)C(=O)c1cc(-c2ncnc3[nH]cc(Cl)c23)c[nH]1` [Compound 199], the Ki on JAK-2 enzyme and at JAK3 was less than 100 nM each time.

Take `CCC(O)CNC(=O)C(C)n1cc(-c2ncnc3[nH]ccc23)cn1` (centres unmarked) [Compound 83]: the Ki on JAK-2 enzyme was in the range of 500 to 5000 nM; at JAK3 it was 100 to 500 nM.

On to `CCN(Cc1ccccc1)C(=O)c1cc(-c2ncnc3[nH]cc(C)c23)c[nH]1` [Compound 202], for which the Ki on JAK-2 enzyme is less than 100 nM; at JAK3, 100 to 500 nM.

For the compound `O=C(c1cc(-c2ncnc3[nH]ccc23)c[nH]1)N(CCC(F)(F)F)Cc1ccccc1` [Compound 108], the Ki at JAK-2 enzyme and at JAK3 was less than 100 nM throughout.

Take `O=C(NC1CCCC1)c1cc(-c2ncnc3[nH]ccc23)c[nH]1` [Compound 13]: the Ki on JAK-2 enzyme and on JAK3 was less than 100 nM in each case.

Regarding `O=C1CCC(C(=O)Nc2nc(-c3ncnc4[nH]ccc34)cs2)C1` (centres unmarked) [Compound 167], the Ki at JAK-2 enzyme and at JAK3 was less than 100 nM each time.

Turning to `CC(C)CN(CCC#N)C(=O)c1cc(-c2ncnc3[nH]cc(Cl)c23)c[nH]1` [Compound 243], the Ki on JAK-2 enzyme and at JAK3 was less than 100 nM throughout.

As to `N#CCN(Cc1ccccc1)C(=O)c1cc(-c2ncnc3[nH]ccc23)c[nH]1` [Compound 111], the inhibition constant (Ki) at JAK-2 enzyme and at JAK3 was less than 100 nM throughout.

Take `N#CCNC(=O)c1cc(-c2ncnc3[nH]ccc23)c[nH]1` [Compound 15]: the Ki on JAK-2 enzyme and on JAK3 was less than 100 nM each time.

For `C#CCNC(=O)c1cc(-c2ncnc3[nH]ccc23)c[nH]1` [Compound 14], the Ki at JAK-2 enzyme was less than 100 nM; on JAK3, 100 to 500 nM.

On to `CCC(C)CC(=O)Nc1nc(-c2ncnc3[nH]ccc23)cs1` (centres unmarked) [Compound 98], for which the Ki at JAK-2 enzyme and at JAK3 was less than 100 nM in each case.

As for `CC(C(=O)N(C)C)n1cc(-c2ncnc3[nH]ccc23)cn1` (centres unmarked) [Compound 77], the Ki at JAK-2 enzyme lay within 100 to 500 nM; on JAK3, 500 to 5000 nM.

In the case of `O=C(O)CCC(=O)Nc1nc(-c2ncnc3[nH]ccc23)cs1` [Compound 146], the Ki at JAK-2 enzyme and on JAK3 was 100 to 500 nM each time.

Take `CCN(C(=O)CC(C)C)c1nc(-c2ncnc3[nH]ccc23)cs1` [Compound 104]: the Ki at JAK-2 enzyme and at JAK3 was less than 100 nM throughout.

Turning to `O=C1[C@H]2CCCC[C@@H]2C(=O)N1c1nc(-c2ncnc3[nH]ccc23)cs1` [Compound 180], the Ki at JAK-2 enzyme and on JAK3 was 100 to 500 nM each time.

As to `CC(O)CNC(=O)C(C)n1cc(-c2ncnc3[nH]ccc23)cn1` (centres unmarked) [Compound 80], the results for the inhibition constant (Ki) at JAK-2 enzyme and at JAK3 were 500 to 5000 nM and 100 to 500 nM, respectively.

In the case of `Cc1c[nH]c2ncnc(-c3cnn(CC(C)C)c3)c12` [Compound 162], the inhibition constant Ki on JAK-2 enzyme is less than 100 nM; at JAK3, 100 to 500 nM.

`CCCCC(C)n1cc(-c2ncnc3[nH]ccc23)cn1` (centres unmarked) [Compound 93]: the Ki at JAK-2 enzyme and at JAK3 was less than 100 nM each time.

Take `N#CCCN(Cc1cccnc1)C(=O)c1cc(-c2ncnc3[nH]ccc23)c[nH]1` [Compound 18]: the Ki at JAK-2 enzyme and on JAK3 was less than 100 nM each time.

`CSCCNC(=O)C(C)n1cc(-c2ncnc3[nH]ccc23)cn1` (centres unmarked) [Compound 84]: the Ki at JAK-2 enzyme and at JAK3 was 100 to 500 nM each time.

Regarding `CC(C(=O)NCc1ccccc1)n1cc(-c2ncnc3[nH]ccc23)cn1` (centres unmarked) [Compound 86], the Ki on JAK-2 enzyme and at JAK3 was 100 to 500 nM each time.

As for `O=C(c1cc(-c2ncnc3[nH]ccc23)c[nH]1)N1CCCC(O)C1` (centres unmarked) [Compound 51], the Ki on JAK-2 enzyme lay within 100 to 500 nM; on JAK3, 500 to 5000 nM.

Regarding `O=C(CCC1CCCC1)Nc1nc(-c2ncnc3[nH]ccc23)cs1` [Compound 67], the Ki at JAK-2 enzyme and at JAK3 was less than 100 nM in each case.

Turning to `O=C(c1cc(-c2ncnc3[nH]cc(Cl)c23)c[nH]1)N(CC1CCC1)CC(F)(F)F` [Compound 240], the inhibition constant Ki at JAK-2 enzyme and on JAK3 was less than 100 nM each time.

Take `Cn1cc(-c2ncnc3[nH]ccc23)cc1C(=O)N(CCC#N)CC1CC1` [Compound 226]: the Ki at JAK-2 enzyme and at JAK3 was less than 100 nM in each case.

Turning to `C=CCCC(=O)Nc1nc(-c2ncnc3[nH]ccc23)cs1` [Compound 69], the Ki on JAK-2 enzyme and on JAK3 was less than 100 nM each time.

In the case of `O=C(c1coc(-c2ncnc3[nH]ccc23)c1)N(CCC(F)(F)F)CC1CC1` [Compound 196], the values for the Ki on JAK-2 enzyme and on JAK3 were less than 100 nM and 100 to 500 nM, respectively.

Regarding `CN(Cc1cccnc1)C(=O)c1cc(-c2ncnc3[nH]ccc23)c[nH]1` [Compound 49], the Ki on JAK-2 enzyme is less than 100 nM; at JAK3, 100 to 500 nM.

As to `O=C(c1cc(-c2ncnc3[nH]ccc23)co1)N(CCC(F)(F)F)CC1CC1` [Compound 229, N-(cyclopropylmethyl)-4-(7H-pyrrolo[2,3-d]pyrimidin-4-yl)-N-(3,3,3-trifluoropropyl)furan-2-carboxamide], the Ki at JAK-2 enzyme was less than 100 nM; on JAK3 it was 100 to 500 nM.

With `O=C(c1coc(-c2ncnc3[nH]ccc23)c1)N(CC1CC1)CC(F)(F)F` [Compound 195], the Ki on JAK-2 enzyme is less than 100 nM; at JAK3, 100 to 500 nM.

Take `CCCN(CC(F)(F)F)C(=O)c1ccc(-c2ncnc3[nH]ccc23)o1` [Compound 121]: the Ki on JAK-2 enzyme and on JAK3 was less than 100 nM each time.

Consider `C=CCN(C(=O)c1ccc(-c2ncnc3[nH]ccc23)o1)[C@@H](C)c1ccccc1` [Compound 222], for which the Ki on JAK-2 enzyme and on JAK3 was less than 100 nM each time.

For the compound `CC(C)(CC(=O)O)CC(=O)Nc1nc(-c2ncnc3[nH]ccc23)cs1` [Compound 145], the Ki on JAK-2 enzyme and on JAK3 was 100 to 500 nM throughout.

In the case of `COCCN(CCOC)C(=O)c1cc(-c2ncnc3[nH]ccc23)c[nH]1` [Compound 25], the Ki on JAK-2 enzyme is less than 100 nM; at JAK3, 100 to 500 nM.

On to `Cn1cc(-c2ncnc3[nH]ccc23)cc1C(=O)NCC(F)(F)F` [Compound 235], for which the Ki on JAK-2 enzyme and at JAK3 was less than 100 nM each time.

In the case of `C[C@@H]1CC[C@@H](C)N1C(=O)c1cc(-c2ncnc3[nH]ccc23)cn1C` [Compound 224], the Ki is less than 100 nM at JAK-2 enzyme and 100 to 500 nM at JAK3.

Regarding `O=C(Nc1nc(-c2ncnc3[nH]ccc23)cs1)C(O)c1ccccc1` (centres unmarked) [Compound 101], the Ki on JAK-2 enzyme and on JAK3 was less than 100 nM throughout.

Consider `CC(C)N(CCC(F)(F)F)C(=O)c1cc(-c2ncnc3[nH]ccc23)co1` [Compound 247], for which the Ki at JAK-2 enzyme lay in the range of 100 to 500 nM; at JAK3, 500 to 5000 nM.
